Source: patent US8106055B2, “Substituted amide compounds” (Gruenenthal GmbH, priority 2007, dated 2012)
Read-outs that look alike come from different tables or passages of the source.

Experiments:
[1] = target: T1, bradykinin 1 receptor (B1R) of the rat (Rattus norvegicus, UniProt P97583); experiment: Functional investigation on the rat bradykinin 1 receptor (B1R), Ca2+ FLIPR assay in CHO K1 rB1R cells; type: cell-based
T1 construct: expressed in transfected cells; host or cells: CHO K1 cells
T1 sequence (P97583 1-337): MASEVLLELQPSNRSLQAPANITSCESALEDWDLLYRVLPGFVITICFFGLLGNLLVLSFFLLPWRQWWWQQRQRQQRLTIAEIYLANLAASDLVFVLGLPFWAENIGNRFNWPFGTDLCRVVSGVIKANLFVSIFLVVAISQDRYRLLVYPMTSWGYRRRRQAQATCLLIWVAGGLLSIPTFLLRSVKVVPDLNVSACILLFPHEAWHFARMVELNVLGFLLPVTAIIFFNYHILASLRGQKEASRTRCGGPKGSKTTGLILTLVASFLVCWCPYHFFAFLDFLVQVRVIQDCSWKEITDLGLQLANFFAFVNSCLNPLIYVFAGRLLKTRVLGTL
How it was run: (§1)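 Fluo-4 Ca2+ readout, peak fluorescence. Stable CHO K1 transfectants; compound pre-incubated 10-20 min, then EC80 agonist—Lys-Des-Arg9-BK for hB1R, Des-Arg9-BK for rB1R. % inhibition vs maximal inhibition; IC50 from multiple concentrations, duplicate/triplicate, ≥2 independent runs.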

[2] = target: T2, human bradykinin 1 receptor (B1R) (Homo sapiens, UniProt P46663); experiment: Functional investigation on the human bradykinin 1 receptor (B1R), Ca2+ FLIPR assay in CHO K1 hB1R cells; type: cell-based
T2 construct: expressed in transfected cells; host or cells: CHO K1 cells
T2 sequence (P46663 1-353): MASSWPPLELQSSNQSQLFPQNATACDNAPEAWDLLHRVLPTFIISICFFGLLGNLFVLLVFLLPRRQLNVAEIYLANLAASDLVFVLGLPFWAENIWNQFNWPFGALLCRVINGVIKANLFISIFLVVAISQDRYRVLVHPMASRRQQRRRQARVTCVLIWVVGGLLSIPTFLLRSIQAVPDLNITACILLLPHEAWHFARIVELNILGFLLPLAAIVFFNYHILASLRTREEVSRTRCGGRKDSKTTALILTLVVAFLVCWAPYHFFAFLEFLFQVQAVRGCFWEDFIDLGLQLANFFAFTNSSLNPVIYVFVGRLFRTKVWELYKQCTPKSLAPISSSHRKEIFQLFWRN
How it was run: as §1

[3] = CHO-K1, read-out: B1R Ant. r [10 μM] % Inhibition
[4] = CHO-K1, read-out: B1R Ant. h [10 μM] % Inhibition
[5] = CHO-K1, B1R antagonism rat, test substance 10 μM, Ca2+ FLIPR, CHO K1 rB1R cells, read-out: B1R Ant. r [10 μM] % Inhibition
[6] = CHO-K1, B1R antagonism human, test substance 10 μM, Ca2+ FLIPR, CHO K1 hB1R cells, read-out: B1R Ant. h [10 μM] % Inhibition

Compound: CN(C)C(c1cccs1)C1CCC(CNC(=O)COCCN(C)S(=O)(=O)c2ccc(F)cc2)CC1 (centres unmarked) [Example 56, N-((4-((dimethylamino)(thiophen-2-yl)methyl)cyclohexyl)methyl)-2-(2-(4-fluoro-N-methylphenylsulfonamido)ethoxy)acetamide]
- inhibition at 10 µM [1, 3]: -4%
- inhibition at 10 µM [2, 4]: 22%

Compound: Cc1cc(C)c(S(=O)(=O)N(C)CCOCC(=O)NCC2CCC(C(c3cccs3)N(C)C)CC2)c(C)c1 (centres unmarked) [Example 57, N-((4-((dimethylamino)(thiophen-2-yl)methyl)cyclohexyl)methyl)-2-(2-(N,2,4,6-tetramethylphenylsulfonamido)ethoxy)acetamide]
- inhibition at 10 µM [1, 5]: 35%
- inhibition at 10 µM [2, 6]: 82%

Compound: COc1cc(C)c(S(=O)(=O)N2CCC(OCC(=O)NCC3CCC(C(c4cccs4)N(C)C)CC3)C2)c(C)c1C (centres unmarked) [Example 58, N-((4-((dimethylamino)(thiophen-2-yl)methyl)cyclohexyl)methyl)-2-(1-(4-methoxy-2,3,6-trimethylphenylsulfonyl)pyrrolidin-3-yloxy)acetamide]
- inhibition at 10 µM [1, 5]: 5%
- inhibition at 10 µM [2, 6]: 52%

Compound: CCN(CCOCC(=O)NC1CCC(C(c2cccs2)N(C)C)CC1)S(=O)(=O)c1c(C)cc(OC)c(C)c1C (centres unmarked) [Example 59, N-(4-((dimethylamino)(thiophen-2-yl)methyl)cyclohexyl)-2-(2-(N-ethyl-4-methoxy-2,3,6-trimethylphenylsulfonamido)ethoxy)acetamide]
- inhibition at 10 µM [1, 5]: 70%
- inhibition at 10 µM [2, 6]: 56%

Compound: COc1cc(C)c(S(=O)(=O)N2CCCC(OCC(=O)NCC3CCC(C(c4cccs4)N(C)C)CC3)C2)c(C)c1C (centres unmarked) [Example 60, N-((4-((dimethylamino)(thiophen-2-yl)methyl)cyclohexyl)methyl)-2-(1-(4-methoxy-2,3,6-trimethylphenylsulfonyl)piperidin-3-yloxy)acetamide]
- inhibition at 10 µM [1, 5]: 11%
- inhibition at 10 µM [2, 6]: 28%

Compound: COc1cc(C)c(S(=O)(=O)N2CCN(CCOCC(=O)NCC3CCC(C(c4ccccc4)N(C)C)CC3)CC2)c(C)c1C (centres unmarked) [Example 61, N-((4-((dimethylamino)(phenyl)methyl)cyclohexyl)methyl)-2-(2-(4-(4-methoxy-2,3,6-trimethylphenylsulfonyl)piperazin-1-yl)ethoxy)acetamide]
- inhibition at 10 µM [1, 5]: 25%
- inhibition at 10 µM [2, 6]: 63%

Compound: COc1ccc(S(=O)(=O)N2CCCCC2CCOCC(=O)NC2CCC(C(c3cccc(F)c3)N(C)C)CC2)cc1 (centres unmarked) [Example 62, N-(4-((dimethylamino)(3-fluorophenyl)methyl)cyclohexyl)-2-(2-(1-(4-methoxyphenylsulfonyl)piperidin-2-yl)ethoxy)acetamide]
- inhibition at 10 µM [1, 5]: 32%
- inhibition at 10 µM [2, 6]: 40%

Compound: Cc1cc(C)c(S(=O)(=O)N2CCC(OCC(=O)NC3CCC(C(c4ccccc4)N(C)C)CC3)C2)c(C)c1 (centres unmarked) [Example 64, N-(4-((dimethylamino)(phenyl)methyl)cyclohexyl)-2-(1-(mesitylsulfonyl)pyrrolidin-3-yloxy)acetamide]
- inhibition at 10 µM [1, 5]: 16%
- inhibition at 10 µM [2, 6]: 60%

Compound: CN(C)C(c1cccs1)C1CCC(CCNC(=O)COCCN(C)S(=O)(=O)c2ccc(OC(F)(F)F)cc2)CC1 (centres unmarked) [Example 65, N-(2-(4-((dimethylamino)(thiophen-2-yl)methyl)cyclohexyl)ethyl)-2-(2-(N-methyl-4-(trifluoromethoxy)phenylsulfonamido)ethoxy)acetamide]
- inhibition at 10 µM [1, 5]: 18%
- inhibition at 10 µM [2, 6]: 12%

Compound: CN(C)C(c1cccs1)C1CCC(CCNC(=O)COC2CCN(S(=O)(=O)c3ccc(Cl)cc3)C2)CC1 (centres unmarked) [Example 66, 2-(1-(4-chlorophenylsulfonyl)pyrrolidin-3-yloxy)-N-(2-(4-((dimethylamino)(thiophen-2-yl)methyl)cyclohexyl)ethyl)acetamide]
- inhibition at 10 µM [1, 5]: 30%
- inhibition at 10 µM [2, 6]: -1%

Compound: CN(C)C(c1ccccc1)C1CCC(CNC(=O)COC2CCN(S(=O)(=O)c3ccc(Cl)cc3Cl)C2)CC1 (centres unmarked) [Example 67, 2-(1-(2,4-dichlorophenylsulfonyl)pyrrolidin-3-yloxy)-N-((4-((dimethylamino)(phenyl)methyl)cyclohexyl)methyl)acetamide]
- inhibition at 10 µM [1, 3]: 46%
- inhibition at 10 µM [2, 4]: 48%

Compound: Cc1ccc(S(=O)(=O)N2CCC(OCC(=O)NCC3CCC(C(c4cccs4)N(C)C)CC3)C2)cc1 (centres unmarked) [Example 68, N-((4-((dimethylamino)(thiophen-2-yl)methyl)cyclohexyl)methyl)-2-(1-tosylpyrrolidin-3-yloxy)acetamide]
- inhibition at 10 µM [1, 5]: 39%
- inhibition at 10 µM [2, 6]: 18%

Compound: COc1cc(C)c(S(=O)(=O)N(C)CCOCC(=O)NCC2CCC(C(c3cccs3)N(C)C)CC2)c(C)c1 (centres unmarked) [Example 69, N-((4-((dimethylamino)(thiophen-2-yl)methyl)cyclohexyl)methyl)-2-(2-(4-methoxy-N,2,6-trimethylphenylsulfonamido)ethoxy)acetamide]
- inhibition at 10 µM [1, 5]: 100%
- inhibition at 10 µM [2, 6]: 104%

Compound: CN(C)C(c1cccc(F)c1)C1CCC(CNC(=O)COCCN(C)S(=O)(=O)c2ccc(Cl)cc2Cl)CC1 (centres unmarked) [Example 70, 2-(2-(2,4-dichloro-N-methylphenylsulfonamido)ethoxy)-N-((4-((dimethylamino)(3-fluorophenyl)methyl)cyclohexyl)methyl)acetamide]
- inhibition at 10 µM [1, 5]: 31%
- inhibition at 10 µM [2, 6]: 98%

Compound: Cc1cc(C)c(S(=O)(=O)N2CCC(OCC(=O)NCCC3CCC(C(c4cccs4)N(C)C)CC3)C2)c(C)c1 (centres unmarked) [Example 71, N-(2-(4-((dimethylamino)(thiophen-2-yl)methyl)cyclohexyl)ethyl)-2-(1-(mesitylsulfonyl)pyrrolidin-3-yloxy)acetamide]
- inhibition at 10 µM [1, 5]: 54%
- inhibition at 10 µM [2, 6]: 84%

Compound: CN(C)C(c1cccc(F)c1)C1CCC(CNC(=O)COCCN(C)S(=O)(=O)c2c(Cl)cccc2Cl)CC1 (centres unmarked) [Example 72, 2-(2-(2,6-dichloro-N-methylphenylsulfonamido)ethoxy)-N-((4-((dimethylamino)(3-fluorophenyl)methyl)cyclohexyl)methyl)acetamide]
- inhibition at 10 µM [1, 5]: 38%
- inhibition at 10 µM [2, 6]: 94%

Compound: COc1ccc(S(=O)(=O)N(C)CCOCC(=O)NC2CCC(C(c3cccs3)N(C)C)CC2)cc1 (centres unmarked) [Example 73, N-(4-((dimethylamino)(thiophen-2-yl)methyl)cyclohexyl)-2-(2-(4-methoxy-N-methylphenylsulfonamido)ethoxy)acetamide]
- inhibition at 10 µM [1, 5]: 29%
- inhibition at 10 µM [2, 6]: 11%

Compound: COc1cc(C)c(S(=O)(=O)N2CCC(OCC(=O)NCCC3CCC(C(c4cccs4)N(C)C)CC3)C2)c(C)c1C (centres unmarked) [Example 74, N-(2-(4-((dimethylamino)(thiophen-2-yl)methyl)cyclohexyl)ethyl)-2-(1-(4-methoxy-2,3,6-trimethylphenylsulfonyl)pyrrolidin-3-yloxy)acetamide]
- inhibition at 10 µM [1, 5]: 27%
- inhibition at 10 µM [2, 6]: 66%

Compound: COc1cc(C)c(S(=O)(=O)N2CCC(CCOCC(=O)NCCC3CCC(C(c4cccs4)N(C)C)CC3)CC2)c(C)c1C (centres unmarked) [Example 75, N-(2-(4-((dimethylamino)(thiophen-2-yl)methyl)cyclohexyl)ethyl)-2-(2-(1-(4-methoxy-2,3,6-trimethylphenylsulfonyl)piperidin-4-yl)ethoxy)acetamide]
- inhibition at 10 µM [1, 5]: 15%
- inhibition at 10 µM [2, 6]: 15%

Compound: COc1cc(C)c(S(=O)(=O)N2CCN(CCOCC(=O)NC3CCC(C(c4cccc(F)c4)N(C)C)CC3)CC2)c(C)c1C (centres unmarked) [Example 76, N-(4-((dimethylamino)(3-fluorophenyl)methyl)cyclohexyl)-2-(2-(4-(4-methoxy-2,3,6-trimethylphenylsulfonyl)piperazin-1-yl)ethoxy)acetamide]
- inhibition at 10 µM [1, 5]: -7%
- inhibition at 10 µM [2, 6]: 52%

Compound: COc1ccc(S(=O)(=O)N2CCCC2COCC(=O)NCCC2CCC(C(c3cccs3)N(C)C)CC2)cc1 (centres unmarked) [Example 77, N-(2-(4-((dimethylamino)(thiophen-2-yl)methyl)cyclohexyl)ethyl)-2-((1-(4-methoxyphenylsulfonyl)pyrrolidin-2-yl)methoxy)acetamide]
- inhibition at 10 µM [1, 5]: 44%
- inhibition at 10 µM [2, 6]: 41%

Compound: CN(C)C(c1ccccc1)C1CCC(CNC(=O)COC2CCCCC2N(C)S(=O)(=O)c2ccc(Cl)c(Cl)c2)CC1 (centres unmarked) [Example 78, 2-(2-(3,4-dichloro-N-methylphenylsulfonamido)cyclohexyloxy)-N-((4-((dimethylamino)(phenyl)methyl)cyclohexyl)methyl)acetamide]
- inhibition at 10 µM [1, 5]: 2%
- inhibition at 10 µM [2, 6]: 51%
